From ChEMBL document CHEMBL1145045 (J Med Chem, 2003)

Molecular target: Major prion protein
Assay: Half maximal inhibition of Prion protein PrPsc formation was assayed in ScN2a cells
Format: cell-based

| Compound | EC50 |
| --- | --- |
| CCN(CC)CCCC(C)Nc1ccnc2cc(Cl)ccc12 (stereo not drawn) [CHLOROQUINE] | 4 µM |
| CC(CN1c2ccccc2Sc2ccccc21)N(C)C (stereo not drawn) [PROMETHAZINE] | 8 µM |
| c1ccc2nc3ccccc3nc2c1 [PHENAZINE] | > 10 µM |
| CN(C)CCCN1c2ccccc2Sc2ccccc21 [PROMAZINE] | 5 µM |
| O=C(CCCN1CCC(O)(c2ccc(Cl)cc2)CC1)c1ccc(F)cc1 [HALOPERIDOL] | > 10 µM |
| CC(=O)c1ccc2c(c1)N(CCCN(C)C)c1ccccc1S2 [ACEPROMAZINE] | 5 µM |
| NC(=O)N1c2ccccc2C=Cc2ccccc21 [CARBAMAZEPINE] | > 10 µM |
| CN(C)CCCN1c2ccccc2Sc2ccc(Cl)cc21 [CHLORPROMAZINE] | 2 µM |
